The test addresses T1, abc isoform of human TMEM16A channel expressed in CHO cells (Homo sapiens, UniProt Q5XXA6, DEL476-501).
T1 construct: expressed in transfected cells; host or cells: CHO cells, doxycycline-inducible expression under Blasticidin/Zeocin selection
T1 sequence (Q5XXA6 with tags, fused parts or gaps isoform Q5XXA6-5 DEL539-564): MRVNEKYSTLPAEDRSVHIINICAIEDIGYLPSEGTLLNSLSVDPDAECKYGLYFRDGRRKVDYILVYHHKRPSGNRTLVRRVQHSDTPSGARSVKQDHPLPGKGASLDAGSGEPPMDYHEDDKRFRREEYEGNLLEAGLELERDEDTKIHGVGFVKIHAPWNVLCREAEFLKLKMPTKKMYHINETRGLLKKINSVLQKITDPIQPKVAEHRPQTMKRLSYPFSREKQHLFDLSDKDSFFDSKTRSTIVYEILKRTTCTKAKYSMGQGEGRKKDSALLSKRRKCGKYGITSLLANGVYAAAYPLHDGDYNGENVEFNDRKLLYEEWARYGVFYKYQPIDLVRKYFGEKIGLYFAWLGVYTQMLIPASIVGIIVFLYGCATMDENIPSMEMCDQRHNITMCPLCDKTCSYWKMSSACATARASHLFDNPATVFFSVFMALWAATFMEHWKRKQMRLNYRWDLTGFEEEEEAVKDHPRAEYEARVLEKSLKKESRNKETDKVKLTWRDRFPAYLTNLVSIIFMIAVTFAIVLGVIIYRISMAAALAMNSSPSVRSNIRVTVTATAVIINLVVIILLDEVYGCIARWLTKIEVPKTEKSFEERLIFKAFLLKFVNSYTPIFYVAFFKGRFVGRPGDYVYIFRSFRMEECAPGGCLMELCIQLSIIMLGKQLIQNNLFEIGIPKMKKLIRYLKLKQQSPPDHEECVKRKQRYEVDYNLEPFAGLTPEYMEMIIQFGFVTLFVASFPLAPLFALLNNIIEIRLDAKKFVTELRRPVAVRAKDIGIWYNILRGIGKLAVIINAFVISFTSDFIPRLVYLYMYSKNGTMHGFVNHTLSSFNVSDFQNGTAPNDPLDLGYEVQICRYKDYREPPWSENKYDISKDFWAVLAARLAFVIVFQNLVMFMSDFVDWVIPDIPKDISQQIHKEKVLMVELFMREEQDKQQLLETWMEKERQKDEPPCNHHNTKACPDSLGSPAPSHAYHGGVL
Briefly: Automated patch clamping (QPatch) assay to measure TMEM16A activity in whole-cell. It is filed as cell-based. As to conditions: for EC50: CHO cells expressing human TMEM16A (abc), whole-cell automated patch clamp, Hill fit, read-out: TMEM16A QPATCH assay EC50 V3 EC50; for Emax: CHO, read-out: TMEM16A QPATCH assay EC50 V3 Assay Window (% TMEM16A max activation); for Emax / TMEM16A QPATCH assay EC50 V3 Assay Window (% TMEM16A max activation): maximum current at highest dose relative to reference potentiator at maximal concentration (upper limit) and vehicle (lower limit). As for the experimental part:
Automated Patch Clamping Assay to Measure TMEM16A Activity in Whole-Cell
Chinese hamster ovary cells (CHO) cells expressing abc isoform of human TMEM16A channel (Ref) were grown in vented cell-culture flasks (Corning) containing cell culture medium (1×F-12 Ham, 10% FBS, 1% Penicillin-streptomycin, 5 μg/mL Blasticidin S HCl, 400 μg/mL Zeocin), maintained at 37° C. in an incubator with 5% C02, 95% 02 and 100% humidity. The cells were passaged every 2-3 days at 80-90% confluence by aspirating the cell culture medium, washing twice with 10 mL D-PBS then incubating with 4 mL Trypsin-EDTA for no longer than 5 minutes. Trypsin was neutralized with the addition of 32 mL growth medium to the cell suspension, the cells were counted using a viable-cell counter (Vi-CELL; Beckmann-Coulter) and new flasks were seeded at a cell density of 0.01, 0.02, or 0.05×10^6 cells per cm2 for 3, 2, or 1 day(s) growth, respectively. Cell suspension was diluted in the new 175 cm2 flask with 50 mL of growth medium. Doxycycline was used to induce the expression of TMEM16A channel protein and was added directly to the culture flask 18-24 hours in advance of assay at a final concentration of 1 μg/mL. Induced cells were washed with D-PBS and detached from their culture flasks by adding 10 mL of Detachin and incubating for 10 minutes. Once detached, 5 mL of QPatch assay medium (1×CHO-S-SFM II (Sigma), 25 mM HEPES) was added and the resultant cell suspension counted using the Vi-CELL viable cell counter. The optimal cell density for this QPatch assay is 2-5×1 06 cells/mL; re-adjusted as necessary with QPatch assay medium.
The ion channel activity of TMEM16A (abc) expressed in CHO cells was assed using an automated patch clamp system (Qpatch, Sophion). These systems use planar patch-clamp technology to enable high-resistance, continuous whole-cell recordings from multiple cells in parallel, whilst maintaining each individual cell as an isolated experiment. First, each well was primed with intracellular and extracellular solutions described below. Cells were spun down, washed and then resuspended using extracellular solution. Intracellular solution: 130 mM N-methyl-D-glucamine, 10 mM EGTA, 20 mM CaCl2, 1 mM MgCl2, 10 mM HEPES 10, 10 mM BAPTA, 99 mM Sucrose, 2 mM Mg-ATP, pH 7.3, 320 mOsm Extracellular solution: 130 mM N-methyl-D-glucamine, 10 mM EGTA, 20 mM CaCl2, 1 mM MgCl2, 10 mM HEPES 10, 10 mM BAPTA, 99 mM Sucrose, 2 mM Mg-ATP, pH 7.3, 320 mOsm. Resuspended cells were then added to each well and suction was applied from the intracellular side in order to position a cell on the chip aperture, form a high resistance (GO) seal and achieve a whole-cell recording configuration. Following successful whole cell access, cell membranes were maintained at a voltage of −70 mV until the voltage protocol is applied. From this voltage, membranes were depolarized to +70 mV for 1500 ms, and then hyperpolarized to […] before being depolarized again from −90 to +70 mV in a continuous ramp waveform. At the end of the ramp, the membrane voltage is stepped back to −70 mV until the next waveform was applied. Compounds were dissolved at 10 mM in 100% DMSO and then diluted into extracellular solution (0.3% DMSO final) to the desired final concentration. The assay lower and upper limit were defined as follow, average amplitude (nA) of the last 3 sweeps in the vehicle addition of each cell was considered the basal current (lower limit); the average maximum current response in 3 cells for a reference potentiator at maximal concentration (upper limit). Current values for each compound concentration were then plotted against […]. EC50 curves are fitted to concentration-response data using curve-fitting functions (Hill fit) within the QPatch software. Curve fitting is constrained between the lowest concentration (vehicle-only addition) and the highest current value measured within the concentration range. […]
On the technique in general: The patch-clamp technique gives a direct electrical read-out from membranes.

The values below come from patent US20220306617A1, “SUBSTITUTED 1,3-PHENYL HETEROARYL DERIVATIVES AND THEIR USE IN THE TREATMENT OF DISEASE” (NOVARTIS AG, priority 2019, published 2022).

Molecules are shown by their SMILES. Values joined by “and” are separate entries in the source; they are usually repeats but may differ in a detail not shown here. Equal values may be shown once.

The EC50 is the concentration needed to bring the measured effect to its halfway point. With `CCC(CC)NC(=O)c1cnc(-c2cccc(-c3cc(C(=O)N[C@@H](C)[C@H]4CCCO4)n[nH]3)c2)o1` (single isomer, unassigned) [3.0 (i)], the EC50 worked out at 490 nM and the Emax amounted to 92%.
The like results for `CCC(CC)NC(=O)c1cnc(-c2cccc(-c3cc(C(=O)N[C@@H](C)[C@@H]4CCCO4)n[nH]3)c2)o1` (single isomer, unassigned) [3.0 (ii)] were, in that order, 950 nM and 79%.
The like results for `COC(=O)[C@@H](NC(=O)c1cnc(-c2cccc(-c3cc(C(=O)N[C@@H](C)C4CC4)n(CC(O)C(F)(F)F)n3)c2)o1)C(C)C` (single isomer, unassigned) [8.1 (i)] were, in that order, 10 nM and 135%.
With `COC(=O)[C@@H](NC(=O)c1cnc(-c2cccc(-c3cc(C(=O)N[C@@H](C)C4CC4)n(CC(O)C(F)(F)F)n3)c2)o1)C(C)C` (single isomer, unassigned) [8.1 (ii)], the EC50 stood at 20 nM and the “TMEM16A QPATCH assay EC50 V3 Assay Window (% TMEM16A max activation)” value is on record as 124%.
`CCOC(=O)[C@@H](NC(=O)c1cnc(-c2cccc(-c3cc(C(=O)NC(C4CC4)C(F)(F)F)[nH]n3)c2)o1)C(C)C` (single isomer, unassigned) [Example 2.3 (i)]: the half-maximal effective concentration (EC50) is 30 nM and the Emax came to 86%.
Consider `CCOC(=O)[C@@H](NC(=O)c1cnc(-c2cccc(-c3cc(C(=O)NC(C4CC4)C(F)(F)F)[nH]n3)c2)o1)C(C)C` (single isomer, unassigned) [Example 2.3 (ii)], for which the EC50 amounted to 80 nM and the “TMEM16A QPATCH assay EC50 V3 Assay Window (% TMEM16A max activation)” value amounted to 97%.
The like results for `CCC(CC)NC(=O)c1cnc(-c2cccc(-c3cc(C(=O)NC(C4CC4)C4CCCO4)n[nH]3)c2)o1` (single isomer, unassigned) [Example 3.4 (i), 2-(3-(3-((Cyclopropyl(Tetrahydrofuran-2-Yl)Methyl)Carbamoyl)-1H-Pyrazol-5-Yl)Phenyl)-N-(Pentan-3-Yl)Oxazole-5-Carboxamide] were, in that order, 710 nM and 90%.
As for `CCC(CC)NC(=O)c1cnc(-c2cccc(-c3cc(C(=O)NC(C4CC4)C4CCCO4)n[nH]3)c2)o1` (single isomer, unassigned) [Example 3.4 (ii), 2-(3-(3-((Cyclopropyl(Tetrahydrofuran-2-Yl)Methyl)Carbamoyl)-1H-Pyrazol-5-Yl)Phenyl)-N-(Pentan-3-Yl)Oxazole-5-Carboxamide], the EC50 was found to be 260 nM and the “TMEM16A QPATCH assay EC50 V3 Assay Window (% TMEM16A max activation)” value worked out at 115%.
Consider `CCC(CC)NC(=O)c1cnc(-c2cccc(-c3cc(C(=O)NC(C4CC4)C4CCCO4)n[nH]3)c2)o1` (single isomer, unassigned) [Example 3.4 (iii), 2-(3-(3-((Cyclopropyl(Tetrahydrofuran-2-Yl)Methyl)Carbamoyl)-1H-Pyrazol-5-Yl)Phenyl)-N-(Pentan-3-Yl)Oxazole-5-Carboxamide], for which the EC50 is 550 nM and the “TMEM16A QPATCH assay EC50 V3 Assay Window (% TMEM16A max activation)” value is listed as 73%.
The like results for `CCC(CC)NC(=O)c1cnc(-c2cccc(-c3cc(C(=O)NC(C4CC4)C4CCCO4)n[nH]3)c2)o1` (single isomer, unassigned) [Example 3.4 (iv), 2-(3-(3-((Cyclopropyl(Tetrahydrofuran-2-Yl)Methyl)Carbamoyl)-1H-Pyrazol-5-Yl)Phenyl)-N-(Pentan-3-Yl)Oxazole-5-Carboxamide] were, in that order, 380 nM and 73%.
The like results for `CCC(CC)NC(=O)c1cnc(-c2cccc(-c3cc(C(=O)N[C@@H](C#N)CC)n[nH]3)c2)o1` (single isomer, unassigned) [Example 3.26, (R)-2-(3-(3-((1-Cyanopropyl)Carbamoyl)-1H-Pyrazol-5-Yl)Phenyl)-N-(Pentan-3-Yl)Oxazole-5-Carboxamide or (S)-2-(3-(3-((1-Cyanopropyl)Carbamoyl)-1H-Pyrazol-5-Yl)Phenyl)-N-(Pentan-3-Yl)Oxazole-5-Carboxamide] were, in that order, 240 nM and 109%.
The like results for `C[C@H](NC(=O)c1cc(-c2cccc(-c3ncc(C(=O)NC(C4CC4)C4CC4)o3)c2)nn1CC(O)C(F)(F)F)C1CC1` (single isomer, unassigned) [Example 9.2 (i)] were, in that order, 130 nM and 115%.
As to `C[C@H](NC(=O)c1cc(-c2cccc(-c3ncc(C(=O)NC(C4CC4)C4CC4)o3)c2)nn1CC(O)C(F)(F)F)C1CC1` (single isomer, unassigned) [Example 9.2 (ii)], the EC50 is 40 nM and the “TMEM16A QPATCH assay EC50 V3 Assay Window (% TMEM16A max activation)” value is given as 83%.
Take `CCOC(=O)[C@@H](NC(=O)c1cnc(-c2cccc(-c3cc(C(=O)N[C@@H](C)C4CC4)n[nH]3)c2)o1)C(C)C` [Example 1.0, (S)-Ethyl 2-(2-(3-(3-(((S)-1-Cyclopropylethyl)Carbamoyl)-1H-Pyrazol-5-Yl)Phenyl)Oxazole-5-Carboxamido)-3-Methylbutanoate]: the EC50 stood at 40 nM and the Emax amounted to 79%.
Consider `CCOC(=O)[C@@H](NC(=O)c1cnc(-c2cccc(-c3cc(C(=O)NC(CC)CC)n[nH]3)c2)o1)C(C)C` [Example 1.1, (S)-Ethyl 3-Methyl-2-(2-(3-(3-(Pentan-3-Ylcarbamoyl)-1 H-Pyrazol-5-Yl)Phenyl)Oxazole-5-Carboxamido)Butanoate], for which the concentration for a half-maximal effect (EC50) is 20 nM and 10 nM; the Emax worked out at 90%; the “TMEM16A QPATCH assay EC50 V3 Assay Window (% TMEM16A max activation)” value was 100%.
`CCC(CC)NC(=O)c1cc(-c2cccc(-c3ncc(C(=O)NC4CCCC4)o3)c2)[nH]n1` [Example 1.2]: the 50% effective concentration (EC50) is 800 nM and the Emax amounted to 83%.
